For 41 compounds, IC50 results are on record in patent US9783536B2, “Nitrogen-containing heterocyclic compound or salt thereof” (FUJIFILM Corporation, priority 2013, dated 2017).

For one assay, the target named is T1, human PI3Kα protein (Homo sapiens, UniProt P42336).
T1 construct: purchased Carna Biosciences, Inc; host or cells: baculovirus expression system
The experiment in a line: PI3Kα enzyme assay (ADP-Glo). Type of assay: biochemical. To be noted: read-out: PI3Kα enzyme inhibitory activity. In a few lines:
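Biotinylated human PI3Kα (baculovirus-expressed, 4.5 nmol/L) pre-incubated 15 min with compound in Tris-HCl pH 7.5, MgCl2, BSA; reaction 60 min at 25° C with 50 μmol/L PIP2 and 100 μmol/L ATP final. ADP quantified by ADP-Glo luminescence; IC50 calculated.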
(ADP-Glo turns the ADP formed in a reaction into a luminescent signal.)

In assay [1] the target is T2, GST fusion human ERK2 protein (Homo sapiens, UniProt P28482).
T2 construct: purchased Carna Biosciences, Inc; host or cells: E. coli expression system
T2 sequence (P28482 whole entry, the tested form may be a part): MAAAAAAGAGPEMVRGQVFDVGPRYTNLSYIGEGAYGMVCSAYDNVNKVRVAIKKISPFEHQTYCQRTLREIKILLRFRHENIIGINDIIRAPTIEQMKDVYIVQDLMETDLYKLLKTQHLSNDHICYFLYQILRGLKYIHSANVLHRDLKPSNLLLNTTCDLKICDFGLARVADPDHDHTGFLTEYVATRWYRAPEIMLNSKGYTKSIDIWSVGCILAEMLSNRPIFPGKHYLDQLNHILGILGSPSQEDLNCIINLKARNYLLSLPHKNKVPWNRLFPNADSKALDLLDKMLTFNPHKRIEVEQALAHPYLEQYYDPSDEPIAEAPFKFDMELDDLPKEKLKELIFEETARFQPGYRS
The experiment in a line: ERK2 enzyme assay (2). In kind it is biochemical. The conditions noted are these: read-out: ERK2 enzyme inhibitory activity (2). The essentials: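 IC50 values come from mobility-shift measurement of phosphorylated versus unphosphorylated 5-FAM peptide substrate after EDTA quench. Beforehand, compound and 1.25 nmol/L E. coli-expressed GST–human ERK2 stood 15 min at room temperature (pH 7.5), then 1 mmol/L ATP and 4.25 μmol/L substrate (final) were added for 120 min at 25 °C.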

T1 sequence (P42336 whole entry): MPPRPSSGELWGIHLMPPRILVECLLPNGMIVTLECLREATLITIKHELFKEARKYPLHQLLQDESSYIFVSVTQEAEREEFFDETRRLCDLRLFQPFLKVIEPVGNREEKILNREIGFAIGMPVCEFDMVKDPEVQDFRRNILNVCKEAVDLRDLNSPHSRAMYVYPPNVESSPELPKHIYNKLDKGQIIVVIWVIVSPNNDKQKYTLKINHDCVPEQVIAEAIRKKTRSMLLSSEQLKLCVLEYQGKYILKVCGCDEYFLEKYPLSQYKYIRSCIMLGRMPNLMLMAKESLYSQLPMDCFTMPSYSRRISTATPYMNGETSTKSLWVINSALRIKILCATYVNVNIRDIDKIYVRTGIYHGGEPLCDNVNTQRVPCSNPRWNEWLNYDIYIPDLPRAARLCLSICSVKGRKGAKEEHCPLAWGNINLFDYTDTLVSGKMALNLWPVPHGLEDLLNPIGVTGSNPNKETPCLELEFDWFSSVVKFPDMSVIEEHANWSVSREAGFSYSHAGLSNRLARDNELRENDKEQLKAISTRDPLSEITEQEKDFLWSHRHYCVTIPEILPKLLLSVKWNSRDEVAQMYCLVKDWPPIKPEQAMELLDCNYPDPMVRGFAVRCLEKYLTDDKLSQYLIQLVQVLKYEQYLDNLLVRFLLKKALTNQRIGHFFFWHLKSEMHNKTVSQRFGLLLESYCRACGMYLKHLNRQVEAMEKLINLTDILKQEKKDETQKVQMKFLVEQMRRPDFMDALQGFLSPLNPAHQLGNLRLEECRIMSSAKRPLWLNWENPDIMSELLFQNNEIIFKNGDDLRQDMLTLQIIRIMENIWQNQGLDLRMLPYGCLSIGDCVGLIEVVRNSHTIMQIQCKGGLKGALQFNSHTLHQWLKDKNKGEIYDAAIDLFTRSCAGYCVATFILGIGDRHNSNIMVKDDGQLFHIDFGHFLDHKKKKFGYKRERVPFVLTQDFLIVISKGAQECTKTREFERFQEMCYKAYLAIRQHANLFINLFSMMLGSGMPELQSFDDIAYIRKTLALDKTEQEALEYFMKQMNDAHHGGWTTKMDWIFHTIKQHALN
T1 sequence (P27986 whole entry partner): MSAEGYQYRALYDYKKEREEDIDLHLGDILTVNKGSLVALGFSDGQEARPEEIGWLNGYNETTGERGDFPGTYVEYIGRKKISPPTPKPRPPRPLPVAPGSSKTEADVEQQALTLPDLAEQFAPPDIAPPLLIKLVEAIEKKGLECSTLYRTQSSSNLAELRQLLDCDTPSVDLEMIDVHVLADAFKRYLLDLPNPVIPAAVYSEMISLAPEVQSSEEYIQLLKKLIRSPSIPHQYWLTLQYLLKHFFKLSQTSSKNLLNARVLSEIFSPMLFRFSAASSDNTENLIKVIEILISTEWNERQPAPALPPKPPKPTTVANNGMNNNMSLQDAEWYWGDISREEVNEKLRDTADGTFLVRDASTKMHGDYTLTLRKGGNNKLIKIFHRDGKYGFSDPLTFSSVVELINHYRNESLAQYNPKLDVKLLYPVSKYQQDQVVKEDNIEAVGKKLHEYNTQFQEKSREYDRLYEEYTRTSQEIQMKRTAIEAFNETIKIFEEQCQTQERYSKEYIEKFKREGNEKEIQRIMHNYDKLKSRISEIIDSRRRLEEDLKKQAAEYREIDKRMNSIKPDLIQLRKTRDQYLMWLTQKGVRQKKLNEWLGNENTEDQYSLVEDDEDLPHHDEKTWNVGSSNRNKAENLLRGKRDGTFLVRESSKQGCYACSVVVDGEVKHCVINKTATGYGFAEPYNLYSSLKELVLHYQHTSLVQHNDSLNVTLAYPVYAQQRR

Regarding `CC(C)c1cnnc(Nc2ccc3ncc(C4=CCN(S(C)(=O)=O)C4)cc3n2)c1` [Example 0908, N-(5-Isopropylpyridazin-3-yl)-7-(1-(methylsulfonyl)-2,5-dihydro-1H-pyrrol-3-yl)-1,5-naphthyridine-2-amine], the IC50 (on human PI3Kα protein; in assay [1]) was under 1 µM throughout.

On to `CC(C)c1cnnc(Nc2ccc3ncc(-c4cn(C)nc4CN4CCN(c5ccncc5)CC4)cc3n2)c1` [Example 0909], for which the IC50 (at human PI3Kα protein; in assay [1]) was under 1 µM in each case.

Regarding `CC(C)c1cnnc(Nc2ccc3ncc(-c4cn(C)nc4CN4CCN(c5cccnc5)CC4)cc3n2)c1` [Example 0910], the IC50 (on human PI3Kα protein; in assay [1]) was under 1 µM in each case.

For `CC(C)c1cnnc(Nc2ccc3ncc(-c4cn(C)nc4COC4COC4)cc3n2)c1` [Example 0911, N-(5-isopropylpyridazin-3-yl)-7-(1-methyl-3-((oxetan-3-yloxy)methyl)-1H-pyrazol-4-yl)-1,5-naphthyridine-2-amine], the IC50 (on human PI3Kα protein; in assay [1]) was under 1 µM throughout.

As for `CC(C)c1cnnc(Nc2ccc3ncc(-c4cn(C)nc4CN4CCN(C)CC4)cc3n2)c1` [Example 0912, N-(5-isopropylpyridazin-3-yl)-7-(1-methyl-3-((4-methylpiperazin-1-yl)methyl)-1H-pyrazol-4-yl)-1,5-naphthyridine-2-amine], the IC50 (on human PI3Kα protein; in assay [1]) was under 1 µM throughout.

With `CC(C)c1cnnc(Nc2ccc3ncc(-c4cn(C)nc4COc4cccnn4)cc3n2)c1` [Example 0913, N-(5-isopropylpyridazin-3-yl)-7-(1-methyl-3-((pyridazin-3-yloxy)methyl)-1H-pyrazol-4-yl)-1,5-naphthyridine-2-amine], the IC50 (at human PI3Kα protein; in assay [1]) was under 1 µM in each case.

On to `COc1c(-c2cnn(C)c2)cnc2ccc(Nc3cc(C(C)C)cnn3)nc12` [Example 0914, N-(5-isopropylpyridazin-3-yl)-8-methoxy-7-(1-methyl-1H-pyrazol-4-yl)-1,5-naphthyridine-2-amine], for which the IC50 (at human PI3Kα protein; in assay [1]) was under 1 µM throughout.

`CCC(C)c1cnnc(Nc2ccc3ncc(-c4cn(C)nc4C)cc3n2)c1` (stereo not shown) [Example 0916]: the IC50 (at human PI3Kα protein; in assay [1]) was under 1 µM throughout.

As to `Cc1nn(C)cc1-c1cnc2ccc(Nc3cc(C(C)(C)C)cnn3)nc2c1` [Example 0917], the IC50 (at human PI3Kα protein; in assay [1]) was under 1 µM in each case.

As to `CCCc1cnnc(Nc2ccc3ncc(-c4cnn(C)c4)cc3n2)c1` [Example 0918], the IC50 (on human PI3Kα protein; in assay [1]) was under 1 µM in each case.

As for `CCOC(C)c1cnnc(Nc2ccc3ncc(-c4cnn(C)c4)cc3n2)c1` (stereo not shown) [Example 0920], the IC50 (on human PI3Kα protein; in assay [1]) was under 1 µM throughout.

For the compound `CCOC(C)c1cnnc(Nc2ccc3ncc(-c4cn(C)nc4C)cc3n2)c1` (stereo not shown) [Example 0921], the IC50 (at human PI3Kα protein; in assay [1]) was under 1 µM each time.

Take `COCc1cnnc(Nc2ccc3ncc(-c4cnn(C)c4)cc3n2)c1` [Example 0922]: the IC50 was 1 to 10 µM on human PI3Kα protein and under 1 µM in assay [1].

`COCc1cnnc(Nc2ccc3ncc(-c4cn(C)nc4C)cc3n2)c1` [Example 0923]: the IC50 (on human PI3Kα protein; in assay [1]) was under 1 µM throughout.

With `CN(C)S(=O)(=O)Cc1cnnc(Nc2ccc3ncc(-c4cnn(C)c4)cc3n2)c1` [Example 0924], the IC50 (on human PI3Kα protein; in assay [1]) was under 1 µM throughout.

With `Cc1nn(C)cc1-c1cnc2ccc(Nc3cc(CS(=O)(=O)N(C)C)cnn3)nc2c1` [Example 0925, 1-(6-((7-(1,3-Dimethyl-1H-pyrazol-4-yl)-1,5-naphthyridin-2-yl)amino)pyridazin-4-yl)-N,N-dimethylmethane sulfonamide], the IC50 (at human PI3Kα protein; in assay [1]) was under 1 µM each time.

Regarding `Cc1nn(C)cc1-c1cnc2ccc(Nc3cc(C4CCCCC4)cnn3)nc2c1` [Example 0926, N-(5-cyclohexylpyridazin-3-yl)-7-(1,3-dimethyl-1H-pyrazol-4-yl)-1,5-naphthyridine-2-amine], the IC50 (at human PI3Kα protein; in assay [1]) was under 1 µM throughout.

On to `Cn1cc(-c2cnc3ccc(Nc4cc(C5CCCCC5)cnn4)nc3c2)cn1` [Example 0927, N-(5-cyclohexylpyridazin-3-yl)-7-(1-methyl-1H-pyrazol-4-yl)-1,5-naphthyridine-2-amine], for which the IC50 (on human PI3Kα protein; in assay [1]) was under 1 µM throughout.

For `CC(C)c1cnnc(Nc2ccc3ncc(-c4cnn(CC#N)c4)cc3n2)c1` [Example 0928, 2-(4-(6-((5-isopropylpyridazin-3-yl)amino)-1,5-naphthyridin-3-yl)-1H-pyrazol-1-yl)acetonitrile], the IC50 (on human PI3Kα protein; in assay [1]) was under 1 µM each time.

Consider `CC(C)c1cnnc(Nc2ccc3ncc(Br)cc3n2)c1` [Example 0929, 7-bromo-N-(5-isopropylpyridazin-3-yl)-1,5-naphthyridine-2-amine], for which the IC50 on human PI3Kα protein is 1 to 10 µM; in assay [1] it was under 1 µM.

For `COC1CN(c2nn(C)cc2-c2cnc3ccc(Nc4cc(C(C)C)cnn4)nc3c2)C1` [Example 0930], the IC50 (at human PI3Kα protein; in assay [1]) was under 1 µM in each case.

`CC(C)c1cnnc(Nc2ccc3ncc(-c4cn(C)nc4Br)cc3n2)c1` [Example 0931]: the IC50 (at human PI3Kα protein; in assay [1]) was under 1 µM each time.

With `CC(C)c1cnnc(Nc2ccc3ncc(-c4cn(C)nc4N4CCC4)cc3n2)c1` [Example 0932], the IC50 (on human PI3Kα protein; in assay [1]) was under 1 µM each time.

With `COCCOC1CN(c2nn(C)cc2-c2cnc3ccc(Nc4cc(C(C)C)cnn4)nc3c2)C1` [Example 0933], the IC50 (on human PI3Kα protein; in assay [1]) was under 1 µM in each case.

For the compound `CC(C)c1cnnc(Nc2ccc3ncc(-c4cn(C)nc4N4CC5(COC5)C4)cc3n2)c1` [Example 0934], the IC50 (on human PI3Kα protein; in assay [1]) was under 1 µM throughout.

Turning to `CC(C)c1cnnc(Nc2ccc3ncc(-c4cn(C)nc4N4CCC(=O)N(C)CC4)cc3n2)c1` [Example 0935, 1-(4-(6-((5-isopropylpyridazin-3-yl)amino)-1,5-naphthyridin-3-yl)-1-methyl-1H-pyrazol-3-yl)-4-methyl-1,4-diazepan-5-one], the IC50 at human PI3Kα protein was under 1 µM; in assay [1] it was 1 to 10 µM.

As for `CC(C)c1cnnc(Nc2ccc3ncc(-c4cn(C)nc4N4CCCCC4)cc3n2)c1` [Example 0936], the IC50 (on human PI3Kα protein; in assay [1]) was under 1 µM each time.

For `CC(C)c1cnnc(Nc2ccc3ncc(-c4cn(C)nc4N4CCCC4)cc3n2)c1` [Example 0937], the IC50 (at human PI3Kα protein; in assay [1]) was under 1 µM each time.

Regarding `CC(C)c1cnnc(Nc2ccc3ncc(-c4cn(C)nc4N(C)C)cc3n2)c1` [Example 0938, 7-(3-(Dimethylamino)-1-methyl-1H-pyrazol-4-yl)-N-(5-isopropylpyridazin-3-yl)-1,5-naphthyridine-2-amine], the IC50 (at human PI3Kα protein; in assay [1]) was under 1 µM in each case.

Turning to `CC(C)c1cnnc(Nc2ccc3ncc(-c4cn(C)nc4NC4CCC4)cc3n2)c1` [Example 0939], the IC50 (on human PI3Kα protein; in assay [1]) was under 1 µM in each case.

On to `CC(C)c1cnnc(Nc2ccc3ncc(-c4cn(C)nc4NC4CCOC4)cc3n2)c1` (stereo not shown) [Example 0940], for which the IC50 (on human PI3Kα protein; in assay [1]) was under 1 µM each time.

Turning to `CC(C)c1cnnc(Nc2ccc3ncc(-c4cn(C)nc4N4CC5(CCO5)C4)cc3n2)c1` [Example 0941], the IC50 (at human PI3Kα protein; in assay [1]) was under 1 µM in each case.

As for `CC(C)c1cnnc(Nc2ccc3ncc(-c4cn(C)nc4CN4CCOCC4)cc3n2)c1` [Example 0942, N-(5-isopropylpyridazin-3-yl)-7-(1-methyl-3-(morpholinomethyl)-1H-pyrazol-4-yl)-1,5-naphthyridine-2-amine], the IC50 (on human PI3Kα protein; in assay [1]) was under 1 µM each time.

On to `CC(C)c1cnnc(Nc2ccc3ncc(-c4cn(C)nc4N(C)C4COC4)cc3n2)c1` [Example 0943], for which the IC50 (at human PI3Kα protein; in assay [1]) was under 1 µM in each case.

With `CCN(CC)c1nn(C)cc1-c1cnc2ccc(Nc3cc(C(C)C)cnn3)nc2c1` [Example 0944], the IC50 (at human PI3Kα protein; in assay [1]) was under 1 µM each time.

Turning to `COCCN(C)c1nn(C)cc1-c1cnc2ccc(Nc3cc(C(C)C)cnn3)nc2c1` [Example 0945], the IC50 (at human PI3Kα protein; in assay [1]) was under 1 µM throughout.

`COCCNc1nn(C)cc1-c1cnc2ccc(Nc3cc(C(C)C)cnn3)nc2c1` [Example 0946]: the IC50 (at human PI3Kα protein; in assay [1]) was under 1 µM throughout.

On to `COCCN(CCOC)c1nn(C)cc1-c1cnc2ccc(Nc3cc(C(C)C)cnn3)nc2c1` [Example 0947], for which the IC50 (on human PI3Kα protein; in assay [1]) was 1 to 10 µM each time.

For the compound `CC(C)c1cnnc(Nc2ccc3ncc(-c4cn(C)nc4NC4CCCC4)cc3n2)c1` [Example 0948], the IC50 (on human PI3Kα protein; in assay [1]) was under 1 µM in each case.

For the compound `CC(C)c1cnnc(Nc2ccc3ncc(-c4cn(C)nc4NC4CCCCCC4)cc3n2)c1` [Example 0949], the IC50 (on human PI3Kα protein; in assay [1]) was 1 to 10 µM throughout.

On to `Cc1nn(C)cc1-c1cnc2ccc(Nc3cn(C(C)C)cn3)nc2c1` [Example 0950, 7-(1,3-dimethyl-1H-pyrazol-4-yl)-N-(1-isopropyl-1H-imidazol-4-yl)-1,5-naphthyridine-2-amine], for which the IC50 was under 1 µM at human PI3Kα protein and 1 to 10 µM in assay [1].
